Legend:
Oryctolagus cuniculus [1] = assay: Antiglaucoma activity in hypertonic saline-induced New Zealand white rabbit transient ocular hypertensive model assessed as IOP lowering efficacy at 30 uL administered topically immediately after hypertonic saline injection measured at 240 mins post dose; type: functional
Oryctolagus cuniculus [2] = assay: Antiglaucoma activity in hypertonic saline-induced New Zealand white rabbit transient ocular hypertensive model assessed as IOP lowering efficacy at 30 uL administered topically immediately after hypertonic saline injection measured at 120 mins post dose; type: functional
[3] = Induction of NO release assessed as nitrite formation at 0.1 mM in phosphate buffer saline at pH 7.4 in presence of 5 mM L-cysteine measured after 1 hr by Griess assay
[4] = Induction of NO release assessed as nitrite formation at 0.1 mM in phosphate buffer saline at pH 7.4 in presence of 0.5 mM L-cysteine measured after 1 hr by Griess assay
[5] = Solubility of the compound in water at 5 mg incubated in magnetic stirrer for 1 hr; type: physicochemical
[6] = Ionization constant, pKa of the compound by potentiometric titration; type: physicochemical
[7] = n-Octanol-water distribution coefficient, log D of the compound at pH 7.4 after 20 mins by UV-spectrometric based shake-flask method; type: physicochemical
Oryctolagus cuniculus [8] = assay: Antiglaucoma activity in hypertonic saline-induced New Zealand white rabbit transient ocular hypertensive model assessed as IOP lowering efficacy at 30 uL administered topically immediately after hypertonic saline injection measured at 60 mins post dose; type: functional
[9] = Induction of NO release assessed as nitrite formation at 0.1 mM in phosphate buffer saline at pH 7.4 in absence of L-cysteine measured after 1 hr by Griess assay
[10] = Solubility in pH 6 phosphate buffer /5% cremophor EL/0.3% DMSO/0.2 mg/ml bac solution at 10 mg incubated in magnetic stirrer for 1 hr; type: physicochemical; settings: pH 6, 1 h
[11] = Ionization constant of the compound assessed as ionization level by potentiometric titration; type: physicochemical
Oryctolagus cuniculus [12] = assay: Antiglaucoma activity in hypertonic saline-induced New Zealand white rabbit transient ocular hypertensive model assessed as IOP lowering efficacy at 0.5% administered topically immediately after hypertonic saline injection measured at 120 mins post dose; type: functional
Oryctolagus cuniculus [13] = assay: Antiglaucoma activity in hypertonic saline-induced New Zealand white rabbit transient ocular hypertensive model assessed as IOP lowering efficacy at 0.5% administered topically immediately after hypertonic saline injection measured at 60 mins post dose; type: functional
Oryctolagus cuniculus [14] = assay: Antiglaucoma activity in hypertonic saline-induced New Zealand white rabbit transient ocular hypertensive model assessed as IOP lowering efficacy at 30 uL administered topically immediately after hypertonic saline injection measured at 30 mins post dose; type: functional

Row | Compound | solubility at 1 h [5] [mg/mL] | pKa [6] | logD at 20 min [7] | solubility [10] | Activity [11] [%] | Activity (Oryctolagus cuniculus [1]) [mmHg] | Activity (Oryctolagus cuniculus [2]) [mmHg] | Activity [3] [%] | Activity [4] [%] | Activity (Oryctolagus cuniculus [8]) [mmHg] | Activity [9] [%] | Activity (Oryctolagus cuniculus [12]) [mmHg] | Activity (Oryctolagus cuniculus [13]) [mmHg] | Activity (Oryctolagus cuniculus [14]) [mmHg]
1 | N#Cc1c(CN2CCNCC2)no[n+]1[O-].O=C(O)C(F)(F)F | > 30 | 2 to 8.81 | -1.32 | Soluble | 96.3 |  | -10.6 |  | 15.4 | -11.5 | 0 |  |  | 
2 | CN(C)Cc1no[n+]([O-])c1C(N)=O | > 30 | 6.57 | -0.03 | Soluble | 12.9 |  | -8.6 | 12.8 | 1.4 | -12 | 0 |  |  | 
3 | CC(C)(C)NC[C@H](O)COc1nsnc1N1CCOCC1 [TIMOLOL] |  |  |  |  |  |  |  |  |  |  |  | -7.33 | -7.17 | 
4 | CC(C)N(Cc1no[n+]([O-])c1C(N)=O)C(C)C | < 0.5 | 6.62 | 1.4 | Insoluble | 14.2 |  |  | 11.6 | 1.2 |  | 0 |  |  | 
5 | CN(C)CCCN(C)Cc1no[n+]([O-])c1C#N.O=C(O)C(F)(F)F | > 30 | 3.34 to 9.3 | -0.73 | Soluble | 98.8 |  |  | 40.1 | 13.5 |  | 0 |  |  | 
6 | CCOC(=O)/N=c1\c[n+](N2CCOCC2)[n-]o1 |  |  |  |  |  |  | -8.17 |  |  | -7.83 |  |  |  | 
7 | NC(=O)c1c(CO)no[n+]1[O-] | > 30 |  | -1.48 | Soluble |  |  | -2.9 | 12 | 1.8 | -4.8 | 0 |  |  | 

Now from value to molecule, other results behind:

Row | solubility at 1 h [5] [mg/mL] | pKa [6] | logD at 20 min [7] | solubility [10] | Activity [11] [%] | Compound | Activity (Oryctolagus cuniculus [1]) [mmHg] | Activity (Oryctolagus cuniculus [2]) [mmHg] | Activity [3] [%] | Activity [4] [%] | Activity (Oryctolagus cuniculus [8]) [mmHg] | Activity [9] [%] | Activity (Oryctolagus cuniculus [12]) [mmHg] | Activity (Oryctolagus cuniculus [13]) [mmHg] | Activity (Oryctolagus cuniculus [14]) [mmHg]
8 | > 30 | 5.82 | 0.87 | Soluble | 2.6 | CN(C)Cc1no[n+]([O-])c1C#N.O=C(O)C(=O)O | -8.6 | -11.2 | 43.9 | 16.1 | -14.4 | 0 |  |  | 
9 | < 0.5 | 4.01 | 2.31 | Insoluble | < 0.1 | N#Cc1c(CN2CCC(Br)CC2)no[n+]1[O-].O=C(O)C(=O)O |  |  | 40.5 | 15.9 |  | 0 |  |  | 
10 | > 30 | 7.9 | -0.28 | Soluble | 76 | Cc1c(OCCN(C)C)no[n+]1[O-].O=C(O)C(=O)O |  | -9 | < 1 | 0 | -14 | 0 |  |  | 
11 | > 30 | 8.7 | -1.54 | Soluble | 95.2 | Cc1c(OCCN)no[n+]1[O-].O=C(O)C(=O)O |  | -8.8 | < 1 | 0 | -11.9 | 0 |  |  | 
12 | > 30 | 5.8 | 1.98 | Soluble | 2.5 | CCN(CC)Cc1no[n+]([O-])c1C#N.O=C(O)C(=O)O |  | -4.8 | 41.3 | 15.5 | -8.9 | 0 |  |  | 
13 | > 30 | 5.35 | 2.35 | Soluble | 0.9 | CC(C)N(Cc1no[n+]([O-])c1C#N)C(C)C.CS(=O)(=O)O |  |  | 41.9 | 16.5 |  | 0 |  |  | 
14 | < 0.5 | 5.58 | 2.62 | Insoluble | 1.5 | CCN(Cc1ccccc1)Cc1no[n+]([O-])c1C#N.O=C(O)C(=O)O |  |  | 41.7 | 16.4 |  | 0 |  |  | 
15 | 2 | 5.46 | 2.74 | Soluble | 1.1 | CCCN(CCC)Cc1no[n+]([O-])c1C#N.O=C(O)C(=O)O |  | -2.8 | 42.3 | 18.1 | -5.3 | 0 |  |  | -8.5
16 | < 0.5 | 2 to 5.38 | 0.97 | Insoluble | 0.9 | N#Cc1c(CN2CCN(c3ncccn3)CC2)no[n+]1[O-] |  |  | 41.5 | 14.4 |  | 0 |  |  | 
17 | > 30 | 5.79 | 1.31 | Soluble | 2.4 | CCN(C)Cc1no[n+]([O-])c1C#N.O=C(O)C(=O)O |  |  | 40.9 | 17.5 |  | 0 |  |  | 
